The source of these data is patent publication US4060527A, “Pyrido[2,3-c]-acridine-1-hydroxy-2-carboxylic acid derivatives” (Fuji Chemical Industries, Ltd., priority 1975, dated 1977).

The structures appear in SMILES notation. Values after ≈ are worked out from the molar mass of the structure shown.

What is called MIC is the lowest concentration found to suppress growth.

One test concerns Staphylococcus aureus. Nature of the test: Antibacterial activity (MIC) against Staphylococcus aureus as Gram-positive bacterium. It is filed as cell-based. The note with it: Table 3, class symbols; for MIC: Staphylococcus aureus, read-out: Antibacterial Activity (MIC) Staph. aureus. The method, then: (§1) Some of the compounds of this invention were tested as to their antibacterial activity (MIC, mcg/ml) against Staph. aureus as Gram-positive bacterium and E. coli as Gram-negative bacterium. In the table, the antibacterial activity of 0.09 to 1.25 mcg/ml. is indicated as A1, and the antibacterial activity of more than 1.25 mcg/ml. and not more than 2.5 mcg/ml. is indicated as A2.

Another test concerns Escherichia coli. Nature of the test: Antibacterial activity (MIC) against Escherichia coli as Gram-negative bacterium. It counts as cell-based. Conditions: Table 3, class symbols; for MIC: Escherichia coli, read-out: Antibacterial Activity (MIC) E. coli. The method, then:
as §1

As to `C=Cc1c2ccccc2nc2c1ccc1ncc(C(=O)O)c(O)c12` [Compound F-690, Pyrido[2,3-c]-acridine-1-hydroxy-7-vinyl-2-carboxylic acid], the MIC with Staphylococcus aureus and in the test on Escherichia coli was 1.25 to 2.5 µg/mL (≈ 3.95 to 7.9 µM) in each case. Turning to `C=CCc1c2ccccc2nc2c1ccc1ncc(C(=O)O)c(O)c12` [Compound F-694, Pyrido[2,3-c]-acridine-1-hydroxy-7-allyl-2-carboxylic acid], the MIC is 1.25 to 2.5 µg/mL (≈ 3.78 to 7.57 µM) in the test with Staphylococcus aureus and 0.09 to 1.25 µg/mL (≈ 0.272 to 3.78 µM) in the test with Escherichia coli.

`O=C(O)c1cnc2ccc3c(-c4ccccc4Br)c4ccccc4nc3c2c1O` [Compound F-777, Pyrido[2,3-c]-acridine-1-hydroxy-7-o-bromophenyl-2-carboxylic acid]: the MIC in the test on Staphylococcus aureus and with Escherichia coli was 0.09 to 1.25 µg/mL (≈ 0.202 to 2.81 µM) in each case. Consider `O=C(O)c1cnc2ccc3c(-c4ccc(I)cc4)c4ccccc4nc3c2c1O` [Compound F-789, Pyrido[2,3-c]-acridine-1-hydroxy-7-p-iodophenyl-2-carboxylic acid], for which the MIC in the test with Staphylococcus aureus and with Escherichia coli was 0.09 to 1.25 µg/mL (≈ 0.183 to 2.54 µM) each time. Turning to `O=C(O)c1cnc2c(Br)cc3cc4ccccc4nc3c2c1O` [Compound F-840, Pyrido[2,3-c]-acridine-1-hydroxy-5-bromo-2-carboxylic acid], the MIC with Escherichia coli is 0.09 to 1.25 µg/mL (≈ 0.244 to 3.39 µM). The same measure, in the same setting: as for `O=C(O)c1cnc2ccc3c(Br)c4ccccc4nc3c2c1O` [Compound F-841, Pyrido[2,3-c]-acridine-1-hydroxy-7-bromo-2-carboxylic acid], the figure is 0.09 to 1.25 µg/mL (≈ 0.244 to 3.39 µM). With `O=C(O)c1cnc2c(I)cc3cc4ccccc4nc3c2c1O` [Compound F-844, Pyrido[2,3-c]-acridine-1-hydroxy-5-iodo-2-carboxylic acid], the MIC in the test with Staphylococcus aureus and in the test on Escherichia coli was 0.09 to 1.25 µg/mL (≈ 0.216 to 3 µM) each time. Consider `O=C(O)c1cnc2ccc3c(I)c4ccccc4nc3c2c1O` [Compound F-845, Pyrido[2,3-c]-acridine-1-hydroxy-7-iodo-2-carboxylic acid], for which the MIC in the test with Staphylococcus aureus and in the test with Escherichia coli was 0.09 to 1.25 µg/mL (≈ 0.216 to 3 µM) in each case. In the case of `Nc1c2ccccc2nc2c1ccc1ncc(C(=O)O)c(O)c12` [Compound F-849, Pyrido[2,3-c]-acridine-1-hydroxy-7-amino-2-carboxylic acid], the MIC in the test on Staphylococcus aureus and with Escherichia coli was 1.25 to 2.5 µg/mL (≈ 4.09 to 8.19 µM) each time. `CNc1c2ccccc2nc2c1ccc1ncc(C(=O)O)c(O)c12` [Compound F-853, Pyrido[2,3-c]-acridine-1-hydroxy-7-methylamino-2-carboxylic acid]: the MIC with Staphylococcus aureus and in the test with Escherichia coli was 0.09 to 1.25 µg/mL (≈ 0.282 to 3.91 µM) throughout.

For `CCNc1cc2cc3ccccc3nc2c2c(O)c(C(=O)O)cnc12` [Compound F-856, Pyrido[2,3-c]-acridine-1-hydroxy-5-ethylamino-2-carboxylic acid], the MIC with Staphylococcus aureus and with Escherichia coli was 0.09 to 1.25 µg/mL (≈ 0.27 to 3.75 µM) each time. As to `CCNc1ccc2nc3c(ccc4ncc(C(=O)O)c(O)c43)cc2c1` [Compound F-858, Pyrido[2,3-c]-acridine-1-hydroxy-9-ethylamino-2-carboxylic acid], the MIC with Staphylococcus aureus and in the test on Escherichia coli was 0.09 to 1.25 µg/mL (≈ 0.27 to 3.75 µM) each time.

For the molecule `CN(C)c1c2ccccc2nc2c1ccc1ncc(C(=O)O)c(O)c12` [Compound F-869, Pyrido[2,3-c]-acridine-1-hydroxy-7-dimethylamino-2-carboxylic acid], the MIC with Staphylococcus aureus and in the test on Escherichia coli was 0.09 to 1.25 µg/mL (≈ 0.27 to 3.75 µM) in each case. `CSc1c2ccccc2nc2c1ccc1ncc(C(=O)O)c(O)c12` [Compound F-877, Pyrido[2,3-c]-acridine-1-hydroxy-7-methylmercapto-2-carboxylic acid]: the MIC in the test with Staphylococcus aureus and with Escherichia coli was 0.09 to 1.25 µg/mL (≈ 0.268 to 3.72 µM) throughout. For the molecule `CS(=O)(=O)c1c2ccccc2nc2c1ccc1ncc(C(=O)O)c(O)c12` [Compound F-889, Pyrido[2,3-c]-acridine-1-hydroxy-7-methylsulfonyl-2-carboxylic acid], the MIC in the test on Staphylococcus aureus and in the test with Escherichia coli was 0.09 to 1.25 µg/mL (≈ 0.244 to 3.39 µM) each time. In the case of `CS(=O)(=O)c1ccc2nc3c(ccc4ncc(C(=O)O)c(O)c43)cc2c1` [Compound F-890, Pyrido[2,3-c]-acridine-1-hydroxy-9-methylsulfonyl-2-carboxylic acid], the MIC in the test with Staphylococcus aureus and with Escherichia coli was 0.09 to 1.25 µg/mL (≈ 0.244 to 3.39 µM) each time.

Take `O=C(O)c1cnc2ccc3cc4ccc([N+](=O)[O-])cc4nc3c2c1O` [Compound F-892, Pyrido[2,3-c]-acridine-1-hydroxy-10-nitro-2-carboxylic acid]: the MIC in the test with Staphylococcus aureus and in the test on Escherichia coli was 0.09 to 1.25 µg/mL (≈ 0.268 to 3.73 µM) throughout.

With `O=C(O)c1cnc2c(CO)cc3cc4ccccc4nc3c2c1O` [Compound F-893, Pyrido[2,3-c]-acridine-1-hydroxy-5-hydroxymethyl-2-carboxylic acid], the MIC in the test on Staphylococcus aureus lay in the range of 1.25 to 2.5 µg/mL (≈ 3.9 to 7.81 µM); with Escherichia coli it was 0.09 to 1.25 µg/mL (≈ 0.281 to 3.9 µM). Regarding `O=C(O)c1cnc2ccc3cc4cc(CO)ccc4nc3c2c1O` [Compound F-895, Pyrido[2,3-c]-acridine-1-hydroxy-9-hydroxymethyl-2-carboxylic acid], the MIC in the test with Staphylococcus aureus fell in the range of 1.25 to 2.5 µg/mL (≈ 3.9 to 7.81 µM); in the test with Escherichia coli, 0.09 to 1.25 µg/mL (≈ 0.281 to 3.9 µM). In the same order, the values of `NCc1cc2cc3ccccc3nc2c2c(O)c(C(=O)O)cnc12` [Compound F-901, Pyrido[2,3-c]-acridine-1-hydroxy-5-aminomethyl-2-carboxylic acid] are 1.25 to 2.5 µg/mL (≈ 3.91 to 7.83 µM) and 1.25 to 2.5 µg/mL (≈ 3.91 to 7.83 µM).

Consider `O=C(O)c1cnc2c(N(CO)CO)cc3cc4ccccc4nc3c2c1O` [Compound F-913, Pyrido[2,3-c]-acridine-1-hydroxy-5-di-(hydroxymethyl)amino-2-carboxylic acid], for which the MIC in the test on Staphylococcus aureus and with Escherichia coli was 0.09 to 1.25 µg/mL (≈ 0.246 to 3.42 µM) each time. Turning to `O=C(O)c1cnc2ccc3c(N(CO)CO)c4ccccc4nc3c2c1O` [Compound F-914, Pyrido[2,3-c]-acridine-1-hydroxy-7-di-(hydroxymethyl)amino-2-carboxylic acid], the MIC with Staphylococcus aureus and with Escherichia coli was 0.09 to 1.25 µg/mL (≈ 0.246 to 3.42 µM) throughout. Turning to `O=C(O)c1cnc2ccc3cc4cc(N(CO)CO)ccc4nc3c2c1O` [Compound F-915, Pyrido[2,3-c]-acridine-1-hydroxy-9-di-(hydroxymethyl)amino-2-carboxylic acid], the MIC in the test with Staphylococcus aureus and with Escherichia coli was 0.09 to 1.25 µg/mL (≈ 0.246 to 3.42 µM) throughout. With `O=C(O)c1cnc2ccc3cc4ccc(N(CO)CO)cc4nc3c2c1O` [Compound F-916, Pyrido[2,3-c]-acridine-1-hydroxy-10-di-(hydroxymethyl)amino-2-carboxylic acid], the MIC with Staphylococcus aureus and in the test on Escherichia coli was 0.09 to 1.25 µg/mL (≈ 0.246 to 3.42 µM) each time. For `CC(=O)OCCNc1cc2cc3ccccc3nc2c2c(O)c(C(=O)O)cnc12` [Compound F-925, Pyrido[2,3-c] -acridine-1-hydroxy-5-acetoxyethylamino-2-carboxylic acid], the “Antibacterial Activity (MIC) Staph. aureus” value in the test on Staphylococcus aureus was “A1 (antibacterial activity of 0.09 to 1.25 mcg/ml.)”. Further, the “Antibacterial Activity (MIC) E. coli” value in the test on Escherichia coli is “A1 (antibacterial activity of 0.09 to 1.25 mcg/ml.)”. `CC(=O)OCCNc1c2ccccc2nc2c1ccc1ncc(C(=O)O)c(O)c12` [Compound F-926, Pyrido[2,3-c]-acridine-1-hydrox-7-acetoxyethylamino-2-carboxylic acid]: the “Antibacterial Activity (MIC) Staph. aureus” value with Staphylococcus aureus is “A1 (antibacterial activity of 0.09 to 1.25 mcg/ml.)”. The “Antibacterial Activity (MIC) E. coli” value with Escherichia coli was “A1 (antibacterial activity of 0.09 to 1.25 mcg/ml.)”. `CC(=O)OCCNc1ccc2nc3c(ccc4ncc(C(=O)O)c(O)c43)cc2c1` [Compound F-927, Pyrido[2,3-c]-acridine-1-hydroxy-9-acetoxyethylamino-2-carboxylic acid]: the “Antibacterial Activity (MIC) Staph. aureus” value with Staphylococcus aureus was “A1 (antibacterial activity of 0.09 to 1.25 mcg/ml.)”. The “Antibacterial Activity (MIC) E. coli” value with Escherichia coli is given as “A1 (antibacterial activity of 0.09 to 1.25 mcg/ml.)”.
